Test results taken from US20080076772A1, “Anti-Inflammatory Agents” (Pharma Mar S.A. Sociedad Unipersonal, priority 2004, published 2008).

Key:
TNF [1] = assay: TNF production by LPS-stimulated in vitro differentiated macrophages (ELISA); assay type: cell-based, human; details: LPS 100 ng/ml, 16 h incubation
Experimental: (§1) Monocytes, macrophages and TAM were stimulated with 100 ng/ml LPS to induce maximal cytokine production. Determination of cytokines CCL2, TNF and IL-6 was measured by specific ELISA following the manufacturer's instructions.
(§2) To verify whether the inhibitory effect of ecteinascidin 743 on cytokine production was at the transcriptional level, we analyzed mRNA of CCL2 and TNF from LPS-stimulated macrophages by real time-PCR of CCL2 and TNF transcripts in LPS-stimulated monocytes exposed to ecteinascidin 743.

monocytes = assay: Monocytopenia in cancer patients after in vivo treatment (blood formula); set-up: species or system human; details: of 9 patients; decrease = 25% inhibition in at least one cycle; % of leukocytes and monocytes/ul of blood
Description: We also investigated whether the in vivo treatment with ecteinascidin 743 caused a measurable monocytopenia in cancer patients. Monocyte values were obtained from blood formula during routine clinical analysis.

TNF [2] = assay: TNF production by LPS-stimulated monocytes (ELISA); assay type: cell-based, human; details: LPS 100 ng/ml, 16 h incubation
Experimental: as §1, §2
CCL2 and TNF production by LPS-stimulated monocytes treated with the indicated doses of the anti-tumor agents was also tested. […] […] None of these compounds interfered with the production of TNF.

CCL2 = assay: Constitutive CCL2 production by freshly isolated ovarian tumour cells (ELISA); assay type: cell-based, human; details: 16 h
Description: Tumour-associated macrophages (TAM) and tumour cells were isolated from the ascitic fluid of patients with diagnosed ovarian adenocarcinoma, admitted to the Clinic of Obstetrics and Gynecology of the University of Milan-Bicocca, S Gerardo Hospital. Cells contained in the ascitic fluid were centrifuged and isolated by differential density gradients of Ficoll and Percoll, and plastic adherence as previously described (see Allavena, P., Peccatori, F., Maggioni, D., Erroi, A., Sironi, M., Colombo, N., Lissoni, A., Galazka, A., Meiers, W., Mangioni, C., et al. Intraperitoneal recombinant gamma-interferon in patients with recurrent ascitic ovarian carcinoma: modulation of cytotoxicity and cytokine production in tumour-associated effectors and of major histocompatibility antigen expression on tumour cells. Cancer Res, 50: 7318-7323, 1990). Purity of TAM and tumour cell preparations was usually>65±10% as defined by morphology and phenotype analysis. Cells were treated with ecteinascidin 743 at the indicated concentrations and cultured for 1-5 days, as specified in figure legends. […]
Monocytes, macrophages and TAM were stimulated with 100 ng/ml LPS to induce maximal cytokine production. Determination of cytokines CCL2, TNF and IL-6 was measured by specific ELISA following the manufacturer's instructions. […]

## COc1cc2c(cc1O)CCN[C@]21CS[C@@H]2c3c(OC(C)=O)c(C)c4c(c3[C@H](COC1=O)N1[C@@H]2[C@H]2c3c(cc(C)c(OC)c3O)C[C@@H]([C@@H]1O)N2C)OCO4 [ecteinascidin 743]
TNF [1]
  production of TNF by macrophages: never inhibited
monocytes
  patients showing a decrease in the number of monocytes: 7
TNF [2]
  production of TNF by monocytes: never inhibited
CCL2
  constitutive production of CCL2 by freshly isolated tumour cells: reduced
